In US5693626A, “Tetrahydrofuran antifungals” (Schering Corporation, priority 1995, dated 1997):
Values after ≈ are worked out from the molar mass of the structure shown.

Experiments:
Candida glabrata [1] = assay: broth dilution MFC, Candida glabrata; format: cell-based; details: 9 strains, Table R
Procedure: (§1) The in vitro antifungal activity tests were performed via conventional broth dilution methods in Sabouraud dextrose broth ("SDB") medium and Eagles Minimum Essential Medium ("EMEM") against a large number of fungi. Minimum Inhibitory Concentrations ("MICs") were measured after 24, 48 and 72 hour tests. In many cases, Minimum Fungicidial Concentrations ("MFCS") were measured after 48 and 72 hours.

Candida krusei [2] = assay: broth dilution MIC, Candida krusei; format: cell-based; details: 16 strains; for percentage of strains with MICs ≤1 mcg/ml: Table Q; for MIC90: Pichia kudriavzevii, Table S
Dermatophytes [3] = assay: broth dilution MIC, Dermatophytes; format: cell-based, T. rubrum, T. mentagrophytes, and T. tonsurans; details: 6 strains; for percentage of strains with MICs ≤1 mcg/ml: Table Q; for MIC90: Table S
Aspergillus [4] = assay: broth dilution MFC, Aspergillus; format: cell-based, Aspergillus (flavus, fumigatus and other species); details: for percentage of strains with MFCs ≤1 mcg/ml: Aspergillus, 37 strains, Table R
Candida albicans [5] = assay: broth dilution MFC, Candida albicans; details: 26 strains, Table R
Procedure: as §1

[6] = test system: Candida tropicalis & stellatoidea; assay: broth dilution MIC, Candida tropicalis & stellatoidea; format: cell-based; details: 5 strains; for percentage of strains with MICs ≤1 mcg/ml: Table Q; for MIC90: Table S
Procedure: as §1

[7] = test system: Candida tropicalis & stellatoidea; assay: broth dilution MFC, Candida tropicalis & stellatoidea; details: 5 strains, Table R
Procedure: as §1

Candida glabrata [8] = assay: broth dilution MIC, Candida glabrata; format: cell-based; details: 9 strains; for percentage of strains with MICs ≤1 mcg/ml: Table Q
Procedure: as §1

Candida albicans [9] = assay: broth dilution MIC, Candida albicans; format: cell-based; details: 26 strains; for percentage of strains with MICs ≤1 mcg/ml: Table Q; for MIC90: Table S
Procedure: as §1

Cryptococcus neoformans [10] = assay: broth dilution MFC, Cryptococcus neoformans; format: cell-based; details: 3 strains, Table R
Procedure: as §1

Dermatophytes [11] = assay: broth dilution MFC, Dermatophytes; format: cell-based, T. rubrum, T. mentagrophytes, and T. tonsurans; details: 6 strains, Table R
Procedure: as §1

Candida krusei [12] = assay: broth dilution MFC, Candida krusei; format: cell-based; details: 16 strains, Table R
Procedure: as §1

Cryptococcus neoformans [13] = assay: broth dilution MIC, Cryptococcus neoformans; format: cell-based; details: 3 strains; for percentage of strains with MICs ≤1 mcg/ml: Table Q; for MIC90: Table S
Procedure: as §1

Aspergillus [14] = assay: broth dilution MIC, Aspergillus; format: cell-based, Aspergillus (flavus, fumigatus and other species); details: for percentage of strains with MICs ≤1 mcg/ml / MIC90: Aspergillus, 37 strains; for percentage of strains with MICs ≤1 mcg/ml: Table Q; for MIC90: Table S
[15] = serum levels following oral dosing, monkeys; format: in vivo; details: methyl cellulose formulation
[16] = serum levels following oral dosing, mice; format: in vivo; details: methyl cellulose formulation
[17] = serum levels following oral dosing, dogs; format: in vivo; details: methyl cellulose formulation
[18] = serum levels following oral dosing, rats; format: in vivo; details: methyl cellulose formulation
[19] = test system: cytochrome P-450 liver drug metabolizing enzymes; assay: induction of cytochrome P-450 after oral administration in an in vivo rat model
[20] = Janssen U.S. Pat. No. 4,791,111; cited from earlier work

SMILES | percentage of strains with MFCs ≤1 mcg/ml (Candida glabrata [1]) | percentage of strains with MICs ≤1 mcg/ml (Candida krusei [2]) | MIC90 (Candida krusei [2]) [µg/mL] | percentage of strains with MICs ≤1 mcg/ml (Dermatophytes [3]) | MIC90 (Dermatophytes [3]) [µg/mL] | percentage of strains with MFCs ≤1 mcg/ml (Aspergillus [4]) | percentage of strains with MFCs ≤1 mcg/ml (Candida albicans [5]) | percentage of strains with MICs ≤1 mcg/ml [6] | MIC90 [6] [µg/mL] | percentage of strains with MFCs ≤1 mcg/ml [7] | percentage of strains with MICs ≤1 mcg/ml (Candida glabrata [8]) | percentage of strains with MICs ≤1 mcg/ml (Candida albicans [9]) | MIC90 (Candida albicans [9]) [µg/mL] | percentage of strains with MFCs ≤1 mcg/ml (Cryptococcus neoformans [10]) | percentage of strains with MFCs ≤1 mcg/ml (Dermatophytes [11]) | percentage of strains with MFCs ≤1 mcg/ml (Candida krusei [12]) | percentage of strains with MICs ≤1 mcg/ml (Cryptococcus neoformans [13]) | MIC90 (Cryptococcus neoformans [13]) [µg/mL] | percentage of strains with MICs ≤1 mcg/ml (Aspergillus [14]) | MIC90 (Aspergillus [14]) [µg/mL] | also measured
CC[C@@H]([C@@H](C)O)n1ncn(-c2ccc(N3CCN(c4ccc(OC[C@@H]5CO[C@@](Cn6cncn6)(c6ccc(F)cc6F)C5)cc4)CC3)cc2)c1=O | 22 percentage of strains | 100 percentage of strains | 0.12 (≈ 0.171 µM) | 100 percentage of strains | 0.707 (≈ 1.01 µM) | 89 percentage of strains | 100 percentage of strains | 100 percentage of strains | 0.354 (≈ 0.505 µM) | 100 percentage of strains | 33 percentage of strains | 100 percentage of strains | 0.139 (≈ 0.198 µM) | 100 percentage of strains | 100 percentage of strains | 100 percentage of strains | 100 percentage of strains | 0.101 (≈ 0.144 µM) | 100 percentage of strains | 0.112 (≈ 0.16 µM) | 
CC[C@@H]([C@H](C)O)n1ncn(-c2ccc(N3CCN(c4ccc(OC[C@@H]5CO[C@@](Cn6cncn6)(c6ccc(F)cc6F)C5)cc4)CC3)cc2)c1=O [drawing 23] | 22 percentage of strains | 100 percentage of strains | 0.014 (≈ 0.02 µM) | 100 percentage of strains | 0.101 (≈ 0.144 µM) | 62 percentage of strains | 100 percentage of strains | 100 percentage of strains | 0.117 (≈ 0.167 µM) | 100 percentage of strains | 22 percentage of strains | 100 percentage of strains | 0.174 (≈ 0.248 µM) | 100 percentage of strains | 83 percentage of strains | 94 percentage of strains | 100 percentage of strains | 0.007 (≈ 0.00999 µM) | 100 percentage of strains | 0.096 (≈ 0.137 µM) | MIC90 (Candida glabrata [8]; Nakaseomyces glabratus, Table S): 17.1 µg/mL (≈ 24.4 µM)
CC[C@H]([C@H](C)O)n1ncn(-c2ccc(N3CCN(c4ccc(OC[C@@H]5CO[C@@](Cn6cncn6)(c6ccc(F)cc6F)C5)cc4)CC3)cc2)c1=O | 22 percentage of strains | 100 percentage of strains | 0.058 (≈ 0.0828 µM) | 100 percentage of strains | 0.165 (≈ 0.235 µM) | 50 percentage of strains | 100 percentage of strains | 100 percentage of strains | 0.117 (≈ 0.167 µM) | 100 percentage of strains | 22 percentage of strains | 100 percentage of strains |  | 100 percentage of strains | 67 percentage of strains | 88 percentage of strains | 100 percentage of strains | 0.05 (≈ 0.0713 µM) | 100 percentage of strains |  | 
CC[C@@H]([C@H](C)O)n1ncn(-c2ccc(N3CCN(c4ccc(OC[C@@H]5CO[C@@](Cn6cncn6)(c6ccc(F)cc6F)C5)cc4)CC3)cc2)c1=O [drawing 21] |  |  |  |  |  |  |  |  |  |  |  |  |  |  |  |  |  |  |  |  | serum levels compared to azoles of similar structure [15]: consistently higher serum levels; serum levels compared to azoles of similar structure [16]: consistently higher serum levels; serum levels compared to azoles of similar structure [17]: consistently higher serum levels; serum levels compared to azoles of similar structure [18]: consistently higher serum levels; induction of cytochrome P-450 liver drug metabolizing enzymes [19]: not inducers
OC(Cn1cncn1)(Cn1cncn1)c1ccc(F)cc1F [fluconazole, reference compound] | 0 percentage of strains | 0 percentage of strains |  | 100 percentage of strains |  | 0 percentage of strains | 100 percentage of strains | 100 percentage of strains |  | 100 percentage of strains | 0 percentage of strains | 100 percentage of strains |  | 0 percentage of strains | 0 percentage of strains | 0 percentage of strains | 0 percentage of strains |  | 0 percentage of strains |  | MFC (Aspergillus [4]; SDB, 37 species of Aspergillus, bounds printed with ≤, b40, read-out: geometric mean MFC): ≤ 32 µg/mL; MIC (Aspergillus [14]; SDB, 37 species of Aspergillus, bounds printed with ≤, b40, read-out: geometric mean MIC): ≤ 32 µg/mL
CC(O)C(C)n1ncn(-c2ccc(N3CCN(c4ccc(OCC5COC(Cn6cncn6)(c6ccc(Cl)cc6Cl)O5)cc4)CC3)cc2)c1=O (single isomer, unassigned; (+)) [(+)cis-4-[4-[4-[4-[[2-2,4-dichlorophenyl)-2-(1H-1,2,4-triazol-1-ylmethyl)-1,3-dioxolan-4-yl]methoxy]phenyl]-1-piperazinyl]-2,4dihydro-2-(2-hydroxy-1-methylpropyl)-3H-1,2,4-triazol-3-one] |  |  |  |  |  |  |  |  |  |  |  |  |  |  |  |  |  |  |  |  | solubility [20]: increased solubility
